Read-outs that look alike come from different tables or passages of the source.
Experiment: Half-life of ADR destruction by UVA light in the presence of test compounds (decrease in absorbance at 480 nm)
Assay type: physicochemical
[1] = UVA light, 100 μM test compound alone
[2] = UVA light, 100 μM test compound with 0.5 μM riboflavin

| Structure (SMILES) | Half-Life of ADR Destruction, 100 μM Test Compound [1] | Half-Life of ADR Destruction, 100 μM Test Compound and 0.5 μM Riboflavin [2] | further results |
| --- | --- | --- | --- |
| Nc1ncnc2nc[nH]c12 [Adenine] | 50.2 min | 27.4 min | – |
| Nc1ccc(CCC(=O)O)cc1 [3-(4-Aminophenyl) Propionic Acid] | – | 6.41 min | – |
| Nc1ccc(S(=O)(=O)O)cc1 [4-Amino Benzenesulfonic acid] | – | 18.8 min | – |
| O=C(O)c1ccc2c(c1)-c1ccccc1-2 [2-Biphenylene Carboxylic Acid] | – | 15.8 min | – |
| O=C(c1ccccc1)c1cccnc1C(=O)O [3-Benzoylpyridine-2-carboxylic acid] | 43.0 min | 43.0 min | – |
| NS(=O)(=O)c1ccccc1 [Benzenesulfonamide] | – | – | Half-Life of ADR Destruction, 100 μM Test Compound and 0.5 μM Riboflavin: 50.2 min |
| O=S(=O)(c1ccc(O)cc1)c1ccc(O)cc1 [4,4-Dihydroxy Phenylsulfone] | 43.0 min | 43.0 min | – |
| O=C(O)c1ccccc1-c1ccccc1 [2-Phenyl Benzoic Acid] | 43.0 min | 43.0 min | – |
| CC(=O)c1ccc2cc(C)ccc2c1 [6-Methyl-2-acetonaphthone] | 8.85 min | 7.53 min | – |
| CCC(=O)c1ccccc1 [Propriophenone] | – | – | Half-Life of ADR Destruction, 100 μM Test Compound: 43.0 min |
| N[C@@H](Cc1ccc2ccccc2c1)C(=O)O [3-(2-Naphthyl)alanine] | – | 27.4 min | – |
| Nc1cccc2cc(S(=O)(=O)O)ccc12 [5-Amino-2-naphthalenesulfonic acid] | 50.2 min | – | – |
| Nc1ccc(OCc2ccccc2)cc1 [4-Benzyloxyaniline] | 100.3 min | 100.3 min | – |
| CC(=O)Oc1ccc2ccccc2c1 [2-Naphthyl acetate] | – | – | Half-Life of ADR Destruction, 100 μM Test Compound (UVA light, test compound alone, +4% DMSO): 43.0 min; Half-Life of ADR Destruction, 100 μM Test Compound and 0.5 μM Riboflavin (UVA light, with 0.5 μM riboflavin, +4% DMSO): 33.5 min |
| CCc1ccc[nH]1 [2-Ethyl Pyrrole] | – | 10.0 min | – |
| O=c1[nH]c(=O)c2[nH]c(=O)[nH]c2[nH]1 [Uric acid] | – | 21.5 min | – |
| Cn1ccc2ccccc21 [1-methyl Indole] | – | 33.5 min | – |
| COc1ccc(C[C@H](N)C(=O)O)cc1 [4-Methoxy Phenylalanine] | – | 15.1 min | – |
| O=C(O)c1ccccc1C(=O)c1ccccc1 [2-Benzophenone-carboxylic acid] | – | – | Half-Life of ADR Destruction, 100 μM Test Compound: 50.2 min |
| Cc1ccc2[nH]ccc2c1 [5-Methyl Indole] | – | 8.85 min | – |

| Structure (SMILES) | Half-Life of ADR Destruction, 100 μM Test Compound [1] | Half-Life of ADR Destruction, 100 μM Test Compound and 0.5 μM Riboflavin [2] | further results |
| --- | --- | --- | --- |
| Nc1ccc(N)c(S(=O)(=O)O)c1 [2,5-Diamino Benzene sulfonic acid] | – | 27.4 min | – |
| O=c1[nH]c(=O)c2[nH]cnc2[nH]1 [Xanthine] | 50.2 min | 16.7 min | – |
| Nc1ccc2[nH]ccc2c1 [5-Amino Indole] | – | 100.3 min | – |
| Nc1ccc(CO)cc1 [4-Amino Benzyl Alcohol] | – | 27.4 min | – |
| Nc1ccccc1C(=O)CC(N)C(=O)O (centres unmarked) [Kynurenine] | – | 75.3 min | – |
| Nc1ccccc1CCO [2-Amino Phenylethyl Alcohol] | – | 13.7 min | – |
| O=C(O)c1cccc2ccccc12 [Naphthalene-1-carboxylic acid] | 50.2 min | 43.0 min | – |
| O=C1CCc2ccccc2N1 [3,4-Dihydro-2(1H)-quinolinone] | – | – | Half-Life of ADR Destruction, 100 μM Test Compound and 0.5 μM Riboflavin: 20.1 min |
| O=C(O)CCc1c[nH]c2ccccc12 [Indole-3-propionic acid] | – | 9.5 ± 3.5 min | – |
| O=C1c2ccccc2C(=O)c2cnccc21 [Benz[γ]isoquinoline-5,10-dione] | <0.355 min | <0.261 min | – |
| COc1ccc2cc[nH]c2c1 [6-Methoxy Indole] | 33.5 min | 6.27 min | – |
| COc1cccc(N)c1 [3-Methoxy Aniline] | – | 30.1 min | – |
| O=C(O)CSc1ccc2ccccc2c1 [2-(2-naphthylthio) Acetic acid] | 9.41 min | 8.14 min | – |
| CNc1ccc(C(=O)O)cc1 [4-(Methylamino) Benzoic Acid] | – | 75.3 min | – |
| Nc1cccc(OCc2ccccc2)c1 [3-Benzyloxyaniline] | – | – | Half-Life of ADR Destruction, 100 μM Test Compound: 43.0 min; Half-Life of ADR Destruction, 100 μM Test Compound and 0.5 μM Riboflavin: 17.7 min |
| NC1c2ccccc2-c2ccccc21 [9-Amino Fluorene] | 75.3 min | 50.2 min | – |
| O=C(O)C1c2ccccc2-c2ccccc21 [9-Fluorene Carboxylic acid] | 50.2 min | 43.0 min | – |
| Nc1ccc(C(=O)O)cc1O [4-Amino-3-Hydroxy Benzoic Acid] | – | 75.3 min | – |
| Cc1cccc(CO)c1N [2-Amino-3-Methyl Benzyl Alcohol] | – | 18.8 min | – |
| NC(=O)Cc1c[nH]c2ccccc12 [Indole-3-acetamide] | – | 11.2 min | – |

| Structure (SMILES) | Half-Life of ADR Destruction, 100 μM Test Compound [1] | Half-Life of ADR Destruction, 100 μM Test Compound and 0.5 μM Riboflavin [2] | further results |
| --- | --- | --- | --- |
| O=C(O)Cc1c[nH]c2ccccc12 [Indole-3-acetic acid] | 27.4 ± 14.1 min | 3.75 ± 0.22 min | – |
| O=C(O)c1cc2ccccc2[nH]1 [Indole-2-carboxylic acid] | – | 9.12 min | – |
| NC(=O)c1ccc(N)cc1 [4-Aminobenzamide] | – | 13.4 ± 4.7 min | – |
| CC(=O)c1cccc(O)c1 [3′-Hydroxyacetophenone] | 75.3 min | – | – |
| c1ccc2c(c1)CCN2 [Indoline] | – | – | Half-Life of ADR Destruction, 100 μM Test Compound and 0.5 μM Riboflavin: 75.3 min |
| O=C(O)c1cc(=O)c2ccccc2o1 [4-Chromone-2-carboxylic acid] | 15.8 min | 14.3 min | – |
| Nc1ccc(C(=O)O)cc1 [4-Amino Benzoic Acid] | – | 20.6 ± 9.7 min | – |
| NCC(O)c1ccc(O)cc1 (stereo not drawn) [4-Hydroxy-β-hydroxy Phenethylamine] | – | 50.2 min | – |
| COc1ccc(CCCC(=O)O)cc1 [4-(4-Methoxyphenyl) Butyric Acid] | – | 10.8 min | – |
| COc1ccc(CCCO)cc1OC [3-(3,4-Dimethoxyphenyl)-1-Propanol] | 43.0 min | 4.78 min | – |
| Cc1ccc(C(=O)O)cc1N [3-Amino-4-Methyl Benzoic Acid] | – | 13.7 min | – |
| Nc1cc(F)cc(F)c1 [3,5-Difluoro Aniline] | – | 15.1 min | – |
| COc1ccc2ccccc2c1CO [2-Methoxy-1-naphthalenemethanol] | – | 4.43 min | – |
| NC(=O)c1cccc(N)c1 [3-Aminobenzamide] | – | 6.87 ± 1.20 min | – |
| COc1ccc2ccccc2c1C(=O)O [2-Methoxynaphthalene-1-carboxylic acid] | 33.5 min | 2.95 min | – |
| Nc1ccccc1F [2-Fluoro Aniline] | – | 8.36 min | – |
| COc1ccc(C=C(C)C=O)cc1 [4-Methoxy-α-Methyl Cinnamaldehyde] | – | 20.1 min | – |
| C=C1C[C@]23C[C@@]1(O)CC[C@H]2[C@@]12C=C[C@H](O)[C@@](C)(C(=O)O1)[C@H]2[C@@H]3C(=O)O [Gibberellic acid] | 43.0 min | – | – |
| COc1cccc(C=CC(=O)O)c1 [3-Methoxy Cinnamic Acid] | 43.0 min | 21.5 min | – |
| NCc1ccc(N)cc1 [4-Amino Benzylamine] | – | 7.34 ± 1.13 min | – |

Source: patent US20010056085A1, “Methods of using vesicant drug formulations” (priority 1996, published 2001)
